Experimental data published in the supplement of paper PMC11451515.

System: SEM cells
Assay: cell viability relative to DMSO control; higher = less cytotoxic
Conditions: 48 h
In short: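 Library compounds in DMSO were pin-dosed in an 11-point threefold series (47 μM to 0.79 nM) onto leukemia cells in 1536-well plates (5 μl). Plates held 500 cells/well of NOMO1 or SEM or 1000 cells/well of P12-Ichikawa, each adapted for at least four passages in each medium. Luminescence was read with CellTiter-Glo One after 48 h at 37°C. Viability means the per-plate percentage relative to DMSO wells, using cell-free wells as background.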

[1] = HPLM + 10% dialyzed FBS, 0.000781 µM
[2] = HPLM + 10% dialyzed FBS, 0.00234 µM
[3] = HPLM + 10% dialyzed FBS, 0.00702 µM
[4] = HPLM + 10% dialyzed FBS, 0.0211 µM
[5] = HPLM + 10% dialyzed FBS, 0.0632 µM
[6] = HPLM + 10% dialyzed FBS, 0.19 µM
[7] = HPLM + 10% dialyzed FBS, 0.569 µM
[8] = HPLM + 10% dialyzed FBS, 1.71 µM
[9] = HPLM + 10% dialyzed FBS, 5.12 µM
[10] = HPLM + 10% dialyzed FBS, 15.4 µM
[11] = HPLM + 10% dialyzed FBS, 46.1 µM
[12] = RPMI 5 mM glucose + 10% dialyzed FBS, 0.000781 µM
[13] = RPMI 5 mM glucose + 10% dialyzed FBS, 0.00234 µM
[14] = RPMI 5 mM glucose + 10% dialyzed FBS, 0.00702 µM
[15] = RPMI 5 mM glucose + 10% dialyzed FBS, 0.0211 µM
[16] = RPMI 5 mM glucose + 10% dialyzed FBS, 0.0632 µM
[17] = RPMI 5 mM glucose + 10% dialyzed FBS, 0.19 µM
[18] = RPMI 5 mM glucose + 10% dialyzed FBS, 0.569 µM
[19] = RPMI 5 mM glucose + 10% dialyzed FBS, 1.71 µM
[20] = RPMI 5 mM glucose + 10% dialyzed FBS, 5.12 µM
[21] = RPMI 5 mM glucose + 10% dialyzed FBS, 15.4 µM
[22] = RPMI 5 mM glucose + 10% dialyzed FBS, 46.1 µM

COc1cccc2c1C(=O)c1c(O)c3c(c(O)c1C2=O)C[C@@](O)(C(=O)CO)C[C@@H]3O[C@H]1C[C@H](N)[C@H](O)[C@H](C)O1
cell viability [1]: 96.4%
cell viability [2]: 103%
cell viability [3]: 117%
cell viability [4]: 124%
cell viability [5]: 105%
cell viability [6]: 92.4%
cell viability [7]: 47.5%
cell viability [8]: 12.9%
cell viability [9]: 6.97%
cell viability [10]: 4.92%
cell viability [11]: 3.63%
cell viability [12]: 106%
cell viability [13]: 100%
cell viability [14]: 108%
cell viability [15]: 92%
cell viability [16]: 101%
cell viability [17]: 69.9%
cell viability [18]: 40.1%
cell viability [19]: 9.78%
cell viability [20]: 5.67%
cell viability [21]: 3.74%
cell viability [22]: 2.82%

O=C(O)c1cccnc1Nc1cccc(C(F)(F)F)c1
cell viability [1]: 92.1%
cell viability [2]: 105%
cell viability [3]: 99.1%
cell viability [4]: 103%
cell viability [5]: 119%
cell viability [6]: 117%
cell viability [7]: 40.9%
cell viability [8]: 65.2%
cell viability [9]: 117%
cell viability [10]: 120%
cell viability [11]: 111%
cell viability (RPMI 5 mM glucose + 10% FBS, 0.000781 µM): 102%
cell viability (RPMI 5 mM glucose + 10% FBS, 0.00234 µM): 97.1%
cell viability (RPMI 5 mM glucose + 10% FBS, 0.00702 µM): 90.9%
cell viability (RPMI 5 mM glucose + 10% FBS, 0.0211 µM): 106%
cell viability (RPMI 5 mM glucose + 10% FBS, 0.0632 µM): 108%
cell viability (RPMI 5 mM glucose + 10% FBS, 0.19 µM): 111%
cell viability (RPMI 5 mM glucose + 10% FBS, 0.569 µM): 65.9%
cell viability (RPMI 5 mM glucose + 10% FBS, 1.71 µM): 55.2%
cell viability (RPMI 5 mM glucose + 10% FBS, 5.12 µM): 98.5%
cell viability (RPMI 5 mM glucose + 10% FBS, 15.4 µM): 80.6%
cell viability (RPMI 5 mM glucose + 10% FBS, 46.1 µM): 75.6%
cell viability [12]: 105%
cell viability [13]: 133%
cell viability [14]: 110%
cell viability [15]: 106%
cell viability [16]: 119%
cell viability [17]: 125%
cell viability [18]: 59.5%
cell viability [19]: 54.7%
cell viability [20]: 121%
cell viability [21]: 108%
cell viability [22]: 107%

Cc1cc2c(C(N)=O)cccc2n1-c1nc2c(c(NCc3ccccc3)n1)COCC2
cell viability [1]: 89.6%
cell viability [2]: 95.4%
cell viability [3]: 73%
cell viability [4]: 87.2%
cell viability [5]: 93.5%
cell viability [6]: 93.3%
cell viability [7]: 84.9%
cell viability [8]: 38.7%
cell viability [9]: 3.03%
cell viability [10]: 2.9%
cell viability [11]: 3.03%
cell viability [12]: 94.5%
cell viability [13]: 105%
cell viability [14]: 85.5%
cell viability [15]: 87.7%
cell viability [16]: 101%
cell viability [17]: 99.4%
cell viability [18]: 95.8%
cell viability [19]: 24.1%
cell viability [20]: 3.45%
cell viability [21]: 3.44%
cell viability [22]: 3.1%
